Data set [1] relates to Enterococcus faecalis. In words: In vitro antibacterial activity against vancomycin susceptible Enterococcus faecalis UC19217 (VSEF). It counts as functional.
The subject of data set [2] is Haemophilus influenzae. As to the kind of experiment: In vitro antibacterial activity against ampicillin resistant Haemophilus influenzae 30063 (AMPR b-lactamase+). It counts as functional.
In data set [3] the test system is Moraxella catarrhalis. As to the kind of experiment: In vitro antibacterial activity against Moraxella catarrhalis 30607 (b-lactamase+). The format is functional.
For data set [4], the system named is Staphylococcus epidermidis. In words: In vitro antibacterial activity against methicillin resistant Staphylococcus epidermis US 12084 (MRSE). The format is functional.
The subject of data set [5] is Staphylococcus aureus. In words: In vitro antibacterial activity against methicillin susceptible Staphylococcus aureus UC19213 (MSSA); (SA1). The format is functional.
Data set [6] relates to Staphylococcus aureus. As to the kind of experiment: In vitro antibacterial activity against Staphylococcus aureus UC12673 (SA2). It counts as functional.
Data set [7] deals with Streptococcus pneumoniae. As to the kind of experiment: In vitro antibacterial activity against penicillin susceptible Streptococcus pneumoniae UC19912 (PSSP). It counts as functional.
The nature of data set [8]: Oral bioavailability of compound (19.2 mg/kg) after po administration was determined in Sprague-Dawley rat. To be noted: in vivo. The format is ADME, organism-based.
Data set [9] in a line: Clearance (Cl) of compound (9.83 mg/kg) after iv administration was determined in Sprague-Dawley rat. The format is ADME, organism-based. To be noted: in vivo.
Data set [10] in a line: Maximum plasma concentration (Cmax) of compound (19.2 mg/kg) after po administration was determined Sprague-Dawley rat. The format is ADME, organism-based. Details: dose 19.2 mg/kg, route oral.
Data set [11] in a line: Maximum plasma concentration (Cmax) of compound (9.83 mg/kg) after iv administration was determined Sprague-Dawley rat. The format is ADME, organism-based. Details: dose 9.83 mg/kg, route intravenous.
Data set [12] is described as follows: Steady state volume distribution (Vss) of compound(9.83 mg/kg) after iv administration was determined in Sprague-Dawley rat. It counts as ADME, organism-based. Particulars: in vivo, read-out: Vss.
Data set [13] is described as follows: Half life of compound (19.2 mg/kg) after po administration was determined in Sprague-Dawley rat. It counts as ADME, organism-based. To be noted: in vivo.
Data set [14] in a line: Half life of compound (9.83 mg/kg) after iv administration was determined in Sprague-Dawley rat. The format is ADME, organism-based. Particulars: in vivo.
Data set [15] can be described thus: Tmax of compound (19.2 mg/kg) after po administration was determined in Sprague-Dawley rat. Particulars: in vivo. The format is ADME, organism-based.
Data set [16] concerns Mus musculus. As to the kind of experiment: In vivo efficacy of compound against Staphylococcus aureus UC9213 was determined after peroral administration in mouse. Particulars: po. The format is functional.

Values after ≈ are worked out from the molar mass of the structure shown.

One may read the bioavailability as dose-corrected exposure relative to a reference, in per cent. Lower therefore signals little systemic uptake. As usually defined, the clearance is the rate of elimination divided by the concentration. A lower clearance goes with inefficient removal. Broadly, the Cmax is the maximum level reached in the sampled fluid or tissue. In general, half-life refers to how long it takes for the measured level to halve. A high value points to slow decline. What is called Tmax is the time from dosing to the highest level. Usually ED50 stands for the dose that gives a 50% effect, or the effect in half of the subjects.

As for `CC(=O)NC[C@H]1CN(c2ccc3c(c2)CC[C@@H](C)N3C=O)C(=O)O1`, the MIC in [1] was 1 µg/mL (≈ 3.02 µM); in data set [2], 32 µg/mL (≈ 96.6 µM); in data set [3], 4 µg/mL (≈ 12.1 µM); in data set [4] it was < 0.5 µg/mL; in data set [5] it was 2 µg/mL (≈ 6.04 µM); in [6], 1 µg/mL (≈ 3.02 µM). The MIC in data set [7] is < 0.5 µg/mL.

Turning to `C/C(S)=N/C[C@H]1CN(c2ccc3c(c2)OC[C@@H](C)N3C=O)C(=O)O1`, the MIC in data set [1] was 1 µg/mL (≈ 2.86 µM); in data set [2], 32 µg/mL (≈ 91.6 µM); in [3], 2 µg/mL (≈ 5.72 µM); in data set [4], < 0.5 µg/mL; in data set [5] it was < 0.5 µg/mL; in data set [6] it was < 0.5 µg/mL. Moreover, in [7], the MIC is 0.5 µg/mL (≈ 1.43 µM).

Regarding `CC(=O)NC[C@H]1CN(c2ccc3c(c2)C[C@H](C)N3C=O)C(=O)O1`, the MIC was 16 µg/mL (≈ 50.4 µM) in data set [1]; > 64 µg/mL in data set [2]; > 64 µg/mL in [3]; 4 µg/mL (≈ 12.6 µM) in data set [4]; 8 µg/mL (≈ 25.2 µM) in data set [5]; 8 µg/mL (≈ 25.2 µM) in [6]. The compound further had an MIC in data set [7] of 4 µg/mL (≈ 12.6 µM).

Consider `CC(=O)NC[C@H]1CN(c2ccc3c(c2)C[C@H](C)N3C(=O)CO)C(=O)O1`, for which the MIC in data set [1] was 8 µg/mL (≈ 23 µM); in [2], > 16 µg/mL; in data set [3], 16 µg/mL (≈ 46.1 µM); in data set [4], 2 µg/mL (≈ 5.76 µM); in data set [5], 8 µg/mL (≈ 23 µM); in data set [6], 8 µg/mL (≈ 23 µM). The same compound yielded an MIC in data set [7] of 1 µg/mL (≈ 2.88 µM).

Regarding `C/C(S)=N/C[C@H]1CN(c2ccc3c(c2)C[C@@H](C)N3C=O)C(=O)O1`, in data set [8], the bioavailability came to 30.8%. In addition, in data set [9], the clearance is 28.9 mL/min/kg. Further, the Cmax in [10] amounted to 1130 ng/mL; in data set [11], 13600 ng/mL. For the same compound, the Vd in [12] amounted to 0.64 L/kg. Besides, the half-life in data set [13] was 36.6 min; in data set [14], 6 min. The Tmax in data set [15] is 30 min. Further, the MIC in [1] is < 0.5 µg/mL; in [2], 2 µg/mL (≈ 6 µM); in data set [3], 1 µg/mL (≈ 3 µM); in data set [4] it was < 0.5 µg/mL; in [5], < 0.5 µg/mL; in data set [6] it was < 0.5 µg/mL. Besides, the MIC in data set [7] was < 0.5 µg/mL. Also, in data set [16], it took a dose of 7.5 mg/kg to reach the 50% effect level (ED50).

As to `CC(=O)NC[C@H]1CN(c2ccc3c(c2)OC[C@H](C)N3C=O)C(=O)O1`, the MIC in data set [1] is 32 µg/mL (≈ 96 µM); in data set [2], 64 µg/mL (≈ 192 µM); in [3] it was 32 µg/mL (≈ 96 µM); in data set [4], < 4 µg/mL; in data set [5], 8 µg/mL (≈ 24 µM); in [6], 8 µg/mL (≈ 24 µM). Besides, in data set [7], the MIC was < 4 µg/mL.

In the case of `CC(=O)NC[C@H]1CN(c2ccc3c(c2)C[C@@H](C)N3)C(=O)O1`, the MIC was 16 µg/mL (≈ 55.3 µM) in data set [1]; > 64 µg/mL in data set [2]; > 61 µg/mL in data set [3]; 4 µg/mL (≈ 13.8 µM) in data set [4]; 8 µg/mL (≈ 27.6 µM) in data set [5]; 8 µg/mL (≈ 27.6 µM) in data set [6]. In [7], this compound displayed an MIC of 4 µg/mL (≈ 13.8 µM).

For `CC(=O)NC[C@H]1CN(c2ccc3c(c2)C[C@H](C)N3)C(=O)O1`, the MIC in [1] was 64 µg/mL (≈ 221 µM); in data set [2] it was > 64 µg/mL; in data set [3], > 64 µg/mL; in data set [4], 16 µg/mL (≈ 55.3 µM); in data set [5], 32 µg/mL (≈ 111 µM); in [6], 32 µg/mL (≈ 111 µM).

For the origin of these results see ChEMBL document CHEMBL1136462, “The effect of remote chirality on the antibacterial activity of indolinyl, tetrahydroquinolyl and dihydrobenzoxazinyl oxazolidinones” (Bioorg Med Chem Lett, 2003).
